In ChEMBL document CHEMBL1141234, “Synthesis and SAR of highly potent dual 5-HT1A and 5-HT1B antagonists as potential antidepressant drugs” (Bioorg Med Chem Lett, 2005):
Activity calls are given as the source filed them. No cut-off for these calls is given here.

Key:
[1] = molecular target: 5-hydroxytryptamine receptor 1B (Rattus norvegicus, UniProt P28564); assay: Binding affinity for rat 5HT1B receptor
[2] = molecular target: Sodium-dependent noradrenaline transporter (Homo sapiens) (UniProt P23975); assay: Inhibitory activity against NET upto 10 uM
Sequence of Sodium-dependent noradrenaline transporter (Homo sapiens) (P23975 whole entry): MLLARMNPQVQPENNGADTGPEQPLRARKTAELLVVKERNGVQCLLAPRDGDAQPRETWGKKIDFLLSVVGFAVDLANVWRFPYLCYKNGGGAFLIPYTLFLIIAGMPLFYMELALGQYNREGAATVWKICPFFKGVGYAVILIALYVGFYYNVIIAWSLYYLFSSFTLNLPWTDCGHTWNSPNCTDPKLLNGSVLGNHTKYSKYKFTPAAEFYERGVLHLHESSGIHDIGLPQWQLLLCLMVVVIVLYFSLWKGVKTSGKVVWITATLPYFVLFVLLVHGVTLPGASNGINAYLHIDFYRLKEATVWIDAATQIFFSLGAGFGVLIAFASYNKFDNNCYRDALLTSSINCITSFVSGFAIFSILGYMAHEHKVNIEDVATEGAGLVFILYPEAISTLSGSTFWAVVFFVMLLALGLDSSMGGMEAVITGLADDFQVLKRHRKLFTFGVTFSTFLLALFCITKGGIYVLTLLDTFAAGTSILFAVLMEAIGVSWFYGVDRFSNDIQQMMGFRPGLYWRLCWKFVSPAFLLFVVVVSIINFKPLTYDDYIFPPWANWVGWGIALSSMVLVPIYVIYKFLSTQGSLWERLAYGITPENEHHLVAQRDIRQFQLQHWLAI

[3] = species on record: Rattus norvegicus; assay: Electrically stimulated [3H]5-HT release from rat brain cortical slices at 0.1 uM; type: functional, tissue-based
[4] = molecular target: Sodium-dependent serotonin transporter (Homo sapiens) (UniProt P31645); assay: Inhibitory activity against SERT upto 10 uM
Sequence of Sodium-dependent serotonin transporter (Homo sapiens) (P31645 whole entry, looked up): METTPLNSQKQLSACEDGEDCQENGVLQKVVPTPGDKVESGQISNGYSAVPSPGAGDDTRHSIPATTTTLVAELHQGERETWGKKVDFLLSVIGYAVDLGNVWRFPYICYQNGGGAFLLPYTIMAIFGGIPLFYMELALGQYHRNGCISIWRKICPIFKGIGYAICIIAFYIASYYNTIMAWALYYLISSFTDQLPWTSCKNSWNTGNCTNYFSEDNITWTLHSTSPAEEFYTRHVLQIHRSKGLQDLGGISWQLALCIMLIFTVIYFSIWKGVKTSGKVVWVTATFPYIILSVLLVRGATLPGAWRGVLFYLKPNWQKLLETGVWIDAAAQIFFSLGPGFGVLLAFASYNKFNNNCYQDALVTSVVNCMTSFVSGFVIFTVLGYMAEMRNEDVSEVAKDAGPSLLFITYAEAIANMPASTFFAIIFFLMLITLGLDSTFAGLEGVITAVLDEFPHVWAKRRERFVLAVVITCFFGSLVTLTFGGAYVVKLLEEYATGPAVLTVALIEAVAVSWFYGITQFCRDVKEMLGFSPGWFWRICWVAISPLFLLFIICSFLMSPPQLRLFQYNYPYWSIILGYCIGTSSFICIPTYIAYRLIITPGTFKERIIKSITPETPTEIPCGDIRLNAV

[5] = molecular target: T1, 5-hydroxytryptamine receptor 1B (Homo sapiens, UniProt P28222); assay: Intrinsic activity for 5HT1B receptor in FLIPR assay; type: functional
T1 sequence (P28222 whole entry): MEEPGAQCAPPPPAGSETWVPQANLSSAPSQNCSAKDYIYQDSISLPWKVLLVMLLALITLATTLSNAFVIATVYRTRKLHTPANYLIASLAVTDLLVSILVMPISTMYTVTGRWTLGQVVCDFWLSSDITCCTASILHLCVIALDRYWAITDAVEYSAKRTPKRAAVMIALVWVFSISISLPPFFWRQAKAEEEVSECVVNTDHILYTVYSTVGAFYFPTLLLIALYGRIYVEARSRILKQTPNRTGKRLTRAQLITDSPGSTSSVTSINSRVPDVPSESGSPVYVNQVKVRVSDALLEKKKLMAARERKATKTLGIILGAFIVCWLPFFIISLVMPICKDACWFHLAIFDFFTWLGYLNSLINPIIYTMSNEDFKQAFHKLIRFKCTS

[6] = molecular target: T1, 5-hydroxytryptamine receptor 1B; assay: Functional activity in FLIPR assay for 5HT1B receptor; conditions: filed as antagonist
[7] = Ratio of drug level in brain against plasma in rat; type: ADME, organism-based; conditions: read-out: BBR
[8] = molecular target: 5-hydroxytryptamine receptor 2A (Homo sapiens, UniProt P28223); assay: Inhibitory activity against 5HT2A receptor
Sequence of 5-hydroxytryptamine receptor 2A (P28223 whole entry): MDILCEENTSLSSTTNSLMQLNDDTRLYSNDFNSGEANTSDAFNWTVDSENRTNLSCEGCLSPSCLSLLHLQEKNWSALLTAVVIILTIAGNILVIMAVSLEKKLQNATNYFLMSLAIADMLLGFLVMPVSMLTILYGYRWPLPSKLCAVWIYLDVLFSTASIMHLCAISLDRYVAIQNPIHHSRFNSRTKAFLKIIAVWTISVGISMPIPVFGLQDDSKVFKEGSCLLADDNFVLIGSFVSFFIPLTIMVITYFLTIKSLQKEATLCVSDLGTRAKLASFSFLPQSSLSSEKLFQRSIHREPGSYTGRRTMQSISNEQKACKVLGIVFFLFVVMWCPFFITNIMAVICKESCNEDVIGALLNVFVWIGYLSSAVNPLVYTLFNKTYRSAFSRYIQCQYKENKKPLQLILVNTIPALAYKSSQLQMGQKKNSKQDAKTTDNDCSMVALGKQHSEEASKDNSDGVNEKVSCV

[9] = molecular target: T2, 5-hydroxytryptamine receptor 2C (Homo sapiens, UniProt P28335); assay: Inhibitory activity against 5HT2C receptor
T2 sequence (P28335 whole entry): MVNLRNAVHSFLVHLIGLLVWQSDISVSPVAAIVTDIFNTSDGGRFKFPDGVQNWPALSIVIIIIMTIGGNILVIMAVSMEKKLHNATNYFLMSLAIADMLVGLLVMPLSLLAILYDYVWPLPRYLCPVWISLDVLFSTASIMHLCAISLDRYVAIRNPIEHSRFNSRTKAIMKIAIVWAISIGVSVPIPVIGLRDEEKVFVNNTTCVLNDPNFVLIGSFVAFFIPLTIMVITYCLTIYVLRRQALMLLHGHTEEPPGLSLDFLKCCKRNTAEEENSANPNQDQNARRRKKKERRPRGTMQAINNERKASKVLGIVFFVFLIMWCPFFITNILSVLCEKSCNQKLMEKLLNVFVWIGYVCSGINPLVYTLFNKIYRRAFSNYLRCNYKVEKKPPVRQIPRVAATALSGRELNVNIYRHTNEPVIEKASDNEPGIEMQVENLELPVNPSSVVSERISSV

[10] = test system: Mus musculus; assay: In vivo mouse forced swim test at 30 mg/kg, ip; type: functional, organism-based; set-up: dose 30 mg/kg
[11] = molecular target: T3, 5-hydroxytryptamine receptor 1A (Rattus norvegicus, UniProt P19327); assay: Binding affinity for rat 5HT1A receptor
T3 sequence (P19327 whole entry): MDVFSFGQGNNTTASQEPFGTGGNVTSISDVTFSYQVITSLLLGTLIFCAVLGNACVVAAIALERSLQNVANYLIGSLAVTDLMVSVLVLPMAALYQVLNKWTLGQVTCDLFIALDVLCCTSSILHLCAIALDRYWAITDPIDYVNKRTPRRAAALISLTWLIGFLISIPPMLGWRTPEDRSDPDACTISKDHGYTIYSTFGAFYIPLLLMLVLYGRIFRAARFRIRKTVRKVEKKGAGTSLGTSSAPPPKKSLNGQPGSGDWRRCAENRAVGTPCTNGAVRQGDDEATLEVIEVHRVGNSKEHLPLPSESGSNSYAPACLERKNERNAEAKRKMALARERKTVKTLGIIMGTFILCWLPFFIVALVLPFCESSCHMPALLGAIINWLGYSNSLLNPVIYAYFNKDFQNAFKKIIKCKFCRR

[12] = molecular target: T4, 5-hydroxytryptamine receptor 1A (Homo sapiens) (UniProt P08908); assay: Functional activity in [35S]GTP-gamma-S assay for 5HT1A receptor; conditions: filed as antagonist
T4 sequence (whole entry): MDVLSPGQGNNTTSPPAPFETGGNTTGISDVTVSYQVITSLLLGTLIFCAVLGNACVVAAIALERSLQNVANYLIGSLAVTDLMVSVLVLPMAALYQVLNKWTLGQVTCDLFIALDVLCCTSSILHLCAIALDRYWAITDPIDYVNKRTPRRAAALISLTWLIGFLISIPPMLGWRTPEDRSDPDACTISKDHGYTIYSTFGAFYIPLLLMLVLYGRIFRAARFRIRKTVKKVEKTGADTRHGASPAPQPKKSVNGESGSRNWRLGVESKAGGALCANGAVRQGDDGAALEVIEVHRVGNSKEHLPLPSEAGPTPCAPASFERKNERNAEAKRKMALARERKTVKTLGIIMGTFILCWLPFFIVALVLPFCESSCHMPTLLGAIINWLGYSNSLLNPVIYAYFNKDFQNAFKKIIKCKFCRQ

[13] = molecular target: T5, 5-hydroxytryptamine receptor 1A (Homo sapiens, UniProt P08908); assay: Displacement of [35S]GTP-gamma-S from human recombinant 5HT1A receptor; type: functional
T5 sequence (P08908 whole entry): T4 sequence (whole entry)

[14] = molecular target: 5-hydroxytryptamine receptor 5A (Homo sapiens, UniProt P47898); assay: Inhibitory activity against 5HT5A receptor
Sequence of 5-hydroxytryptamine receptor 5A (P47898 whole entry): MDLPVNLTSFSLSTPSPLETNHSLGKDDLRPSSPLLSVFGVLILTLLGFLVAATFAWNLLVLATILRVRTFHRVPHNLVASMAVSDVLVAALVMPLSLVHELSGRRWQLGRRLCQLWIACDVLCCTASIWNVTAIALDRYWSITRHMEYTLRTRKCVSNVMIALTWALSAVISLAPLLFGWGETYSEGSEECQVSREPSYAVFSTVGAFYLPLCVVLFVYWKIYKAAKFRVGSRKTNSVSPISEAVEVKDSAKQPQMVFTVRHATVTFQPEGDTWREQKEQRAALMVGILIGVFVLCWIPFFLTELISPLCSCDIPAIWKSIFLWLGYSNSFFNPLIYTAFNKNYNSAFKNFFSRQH

[15] = molecular target: Sodium-dependent dopamine transporter (Homo sapiens) (UniProt Q01959); assay: Inhibitory activity against DAT upto 10 uM
Sequence of Sodium-dependent dopamine transporter (Homo sapiens) (Q01959 whole entry): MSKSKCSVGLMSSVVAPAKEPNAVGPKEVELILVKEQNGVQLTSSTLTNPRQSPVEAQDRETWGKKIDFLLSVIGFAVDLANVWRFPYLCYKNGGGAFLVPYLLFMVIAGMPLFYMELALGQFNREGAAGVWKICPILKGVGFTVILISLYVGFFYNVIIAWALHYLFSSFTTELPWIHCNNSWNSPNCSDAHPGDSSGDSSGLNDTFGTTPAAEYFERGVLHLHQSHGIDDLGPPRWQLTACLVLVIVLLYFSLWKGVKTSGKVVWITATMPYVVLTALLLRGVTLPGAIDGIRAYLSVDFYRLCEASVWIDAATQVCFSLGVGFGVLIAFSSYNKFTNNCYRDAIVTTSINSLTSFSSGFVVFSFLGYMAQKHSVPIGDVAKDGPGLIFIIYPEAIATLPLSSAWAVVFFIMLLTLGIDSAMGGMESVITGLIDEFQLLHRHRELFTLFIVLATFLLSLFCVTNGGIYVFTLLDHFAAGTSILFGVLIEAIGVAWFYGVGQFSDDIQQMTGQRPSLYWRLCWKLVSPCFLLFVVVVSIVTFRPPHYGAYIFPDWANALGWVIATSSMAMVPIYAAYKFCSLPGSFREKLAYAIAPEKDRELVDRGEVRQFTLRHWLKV

[16] = molecular target: D(3) dopamine receptor (Homo sapiens, UniProt P35462); assay: Inhibitory activity against dopamine D3 receptor
Sequence of D(3) dopamine receptor (P35462 whole entry): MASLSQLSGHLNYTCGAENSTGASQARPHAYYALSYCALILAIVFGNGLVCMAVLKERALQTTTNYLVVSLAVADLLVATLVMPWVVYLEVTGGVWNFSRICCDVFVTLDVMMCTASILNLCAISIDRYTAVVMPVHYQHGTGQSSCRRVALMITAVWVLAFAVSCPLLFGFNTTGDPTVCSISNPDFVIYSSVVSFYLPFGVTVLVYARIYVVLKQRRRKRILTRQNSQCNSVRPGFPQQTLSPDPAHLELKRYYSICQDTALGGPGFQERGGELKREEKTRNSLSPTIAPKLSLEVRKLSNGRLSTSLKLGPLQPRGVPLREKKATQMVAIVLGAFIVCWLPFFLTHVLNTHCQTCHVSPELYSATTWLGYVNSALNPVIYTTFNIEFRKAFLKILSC

Sequence of 5-hydroxytryptamine receptor 1B (Rattus norvegicus, UniProt P28564) (P28564 whole entry): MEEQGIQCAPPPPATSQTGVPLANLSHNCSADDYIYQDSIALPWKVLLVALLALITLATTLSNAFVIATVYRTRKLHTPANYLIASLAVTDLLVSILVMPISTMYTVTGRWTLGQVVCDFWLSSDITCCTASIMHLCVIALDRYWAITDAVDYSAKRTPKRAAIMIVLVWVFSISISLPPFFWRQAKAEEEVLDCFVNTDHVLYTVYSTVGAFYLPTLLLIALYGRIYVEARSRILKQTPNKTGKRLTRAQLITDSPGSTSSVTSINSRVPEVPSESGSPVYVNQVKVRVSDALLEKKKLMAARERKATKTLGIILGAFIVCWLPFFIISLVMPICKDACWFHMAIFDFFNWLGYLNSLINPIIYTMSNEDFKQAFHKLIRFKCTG

CN1CCc2c(sc3ncn(CCN4CCN(c5cncc6ccccc56)CC4)c(=O)c23)C1
Ki [1]: 33.1 nM
Activity [2]: inactive
Activity [3]: Dose-dependent effect
Activity [4]: inactive
Emax [5]: 7%
Activity [6]: Antagonist
Kp [7]: 10.2
Ki [8]: 180 nM
Ki [9]: > 10000 nM
Activity [10]: inactive
Ki [11]: 16.3 nM
Activity [12]: Antagonist
IC50 [13]: 316 nM
Ki [13]: 4.7 nM
Ki [14]: > 10000 nM
Activity [15]: inactive
Ki [16]: 1.18 nM
